Measurements as given in patent EP0812190B1 (priority 1993, dated 1995).
Where two headings read alike, the source gives them in different places.

Legend:
MAO-A [1] = biological target: T1, MAO-A (Rattus norvegicus, UniProt P21396); settings: 21 days
T1 sequence (P21396 1-526): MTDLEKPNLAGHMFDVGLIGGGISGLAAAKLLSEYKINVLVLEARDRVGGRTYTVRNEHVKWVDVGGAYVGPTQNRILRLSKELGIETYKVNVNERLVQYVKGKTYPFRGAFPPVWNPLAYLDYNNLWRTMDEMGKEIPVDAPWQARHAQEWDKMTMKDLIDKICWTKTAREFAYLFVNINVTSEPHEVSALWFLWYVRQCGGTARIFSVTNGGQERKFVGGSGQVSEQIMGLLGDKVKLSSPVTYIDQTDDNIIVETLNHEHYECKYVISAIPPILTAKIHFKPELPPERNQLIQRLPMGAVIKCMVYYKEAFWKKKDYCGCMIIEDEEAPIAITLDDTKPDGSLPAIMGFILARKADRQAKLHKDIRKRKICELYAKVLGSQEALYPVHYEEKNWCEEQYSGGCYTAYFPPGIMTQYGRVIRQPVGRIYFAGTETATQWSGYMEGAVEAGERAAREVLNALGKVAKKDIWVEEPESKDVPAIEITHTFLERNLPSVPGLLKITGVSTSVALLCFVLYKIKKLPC
Description: (§1) (+)PAI or the racemic mixture at three dose levels (0.05, 0.1 and 0.5mg/kg) by oral administration, one dose daily for 21 days, and decapitated 2 hours after the last dose.

[2] = tested on: MPTP-induced striatal dopamine depletions; assay: Suppression of MPTP-induced dopaminergic toxicity (striatal DA and DOPAC); type: in vivo, mice; settings: striatum
Description: Brains were removed and corpora striata dissected on an ice-cold glass plate and frozen on dry ice. Striatal tissues were homogenized in 0.1 M perchloric acid, and deproteinized aliquots containing dihydroxybenzylamine as an internal standard were assayed for dopamine and its major metabolite 3,4-dihydroxy-phenylacetic acid (DOPAC) using HPLC with electrochemical detection.

guinea-pig ileum [3] = assay: tissue or blood; settings: Cavia porcellus, read-out: Percent relaxation
[4] = tested on: amphetamine-induced stereotype behavior; settings: 0.5 mg/kg/day in drinking water, lateral head movements over 1 minute
Description: The extent of this behavior is rated in accordance with the number of lateral head movements over a period of 1 minute.
Following that, amphetamine was injected s.c. at a dose of 0.5 mg/kg. 45 minutes later, lateral head movements were counted.

MAO-B [5] = biological target: T2, MAO-B (Rattus norvegicus, UniProt P19643); assay: in vivo; settings: for ED50 / inhibition at 0.5 mg/kg: rat
T2 sequence (P19643 1-520): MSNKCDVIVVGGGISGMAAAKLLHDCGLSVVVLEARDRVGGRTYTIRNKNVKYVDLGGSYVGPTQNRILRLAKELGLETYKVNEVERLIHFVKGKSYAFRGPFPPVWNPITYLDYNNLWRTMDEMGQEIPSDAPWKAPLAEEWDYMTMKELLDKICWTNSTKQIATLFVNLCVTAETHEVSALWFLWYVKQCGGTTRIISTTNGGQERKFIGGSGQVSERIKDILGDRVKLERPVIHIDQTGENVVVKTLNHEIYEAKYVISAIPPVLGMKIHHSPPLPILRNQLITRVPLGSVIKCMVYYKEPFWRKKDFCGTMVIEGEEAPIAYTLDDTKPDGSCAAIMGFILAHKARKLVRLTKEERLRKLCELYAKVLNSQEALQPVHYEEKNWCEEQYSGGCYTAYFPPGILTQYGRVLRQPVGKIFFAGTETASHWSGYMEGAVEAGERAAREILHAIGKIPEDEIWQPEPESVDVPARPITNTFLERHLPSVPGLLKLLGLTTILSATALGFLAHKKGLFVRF
Description: Groups of three rats were used for each dose level of inhibitor, and MAO activity determined in brain and liver using the general technique described above. The amount of protein in each incubation was determined using the Folin-Lowry method, and enzyme activity calculated as nmol of substrate metabolized per hour of incubation for each mg of protein. Activity of MAO in tissues from animals treated with inhibitors was expressed as a percentage of the enzyme activity in a group of control animals administered vehicle (water for oral administration, 0.9% saline for ip injection) and killed as above.

rabbit jejunum = assay: Tyramine potentiation in rabbit jejunum preparation
MAO-A [6] = biological target: T1, MAO-A; assay: Inhibition of MAO activity in vivo, acute treatment, MAO-A; parameters: MAO activity determined in brain and liver using the general technique described above; from tissue; host or cells: brain and liver of treated rats
MAO-B [7] = biological target: T2, MAO-B; assay: in vivo; settings: po, read-out: inhibition of brain MAO-B
Description: as §1

MAO-B [8] = biological target: T2, MAO-B; settings: 1 mg/kg i.p. single dose; whole brain
Description: Activity of MAO-B was determined in whole brain tissues as described hereinabove.

guinea-pig ileum [9] = settings: bethanechol 0.8 µM; PAI HCl 20 µM
guinea-pig ileum [10] = assay: tissue or blood; settings: Cavia porcellus, read-out: Percent relaxation; remark: listed apart in the source
[11] = dose producing 50% inhibition, rat, i.p., 1h
[12] = dose producing 50% inhibition, rat, p.o., 2h

In the case of `C#CCN[C@@H]1CCc2ccccc21` [[R](+)PAI, R(+)-N-propargyl-1-aminoindan], the “inhibition of brain MAO-A” value (MAO-A [1]; 0.1mg/kg daily oral) is reported as at most 20%, the “inhibition of MAO-A” value (MAO-A [1]; 0.5mg/kg daily oral) is reported as “less than 50%” and the DOPAC ([2]; drug alone (PAI isomers […] i.p., deprenyl 5 mg/kg i.p.)) is reported as 3.3±0.3 ng/mg protein. The DA ([2]; drug alone (PAI isomers […] i.p., deprenyl 5 mg/kg i.p.), Mean±S.E.M.) was 185.0±6.9 ng/mg protein, the DA ([2]; pretreatment one hour before MPTP-HCl 30 mg/kg s.c. (PAI isomers […] i.p., deprenyl 5 mg/kg i.p.), 5 days later) was 177.8±14.4 ng/mg protein and the DOPAC ([2]; pretreatment one hour before MPTP-HCl 30 mg/kg s.c., 5 days later) was 6.0±0.3 ng/mg protein. The inhibition at 2 µM (guinea-pig ileum [3]) was 0%, the inhibition at 4 µM (guinea-pig ileum [3]) was 0% and the inhibition at 10 µM (guinea-pig ileum [3]) was 0%. For the same compound, the inhibition at 40 µM (guinea-pig ileum [3]) was 37%, the inhibition at 400 µM (guinea-pig ileum [3]) was 100% and the inhibition at 700 µM (guinea-pig ileum [3]) was 100%. For the same compound, the “Stereotype Behavior Rating” value ([4]; control senescent rats, 45 min after amphetamine 0.5 mg/kg s.c.) was 126±16, the “Stereotype Behavior Rating” value ([4]; hypoxia lesioned senescent rats) was 143±6 and the “inhibition of MAO-B in brain and liver” value (MAO-B [5]; dose of 1mg/kg) was “complete inhibition”. The ED50 (MAO-B [5]; ip, 1 h, read-out: IC-50 MAO-B I.P. BRAIN) was 0.07 mg/kg, the ED50 (MAO-B [5]; ip, 1 h, read-out: IC-50 MAO-B I.P. LIVER) was 0.06 mg/kg and the inhibition at 0.5 mg/kg (MAO-B [5]; ip, read-out: inhibition of brain MAO-B activity) was 90%. It also gave an ED50 (MAO-B [5]; po, 2 h, read-out: IC-50 MAO-B P.O. BRAIN) of 0.17 mg/kg, an ED50 (MAO-B [5]; po, 2 h, read-out: IC-50 MAO-B P.O. LIVER) of 0.05 mg/kg and an inhibition at 0.5 mg/kg (MAO-B [5]; po, read-out: inhibition of MAO-B) of 80%. It also gave a Percent relaxation (rabbit jejunum; PAI HCl enantiomer alone 0.2-4.0 µM) of 0%, a Percent relaxation (rabbit jejunum; tyramine 40 µM after 0.2 µM PAI HCl enantiomer) of 67% and a Percent relaxation (rabbit jejunum; tyramine 40 µM after 2 µM PAI HCl enantiomer) of 88%. The Percent relaxation (rabbit jejunum; tyramine 40 µM after 40 µM PAI HCl enantiomer) was 85-90%, the “inhibition of MAO-A activity” value (MAO-A [6]; brain, 0.5mg/kg i.p., single dose) was 20% and the “inhibition of MAO-A” value (MAO-A [6]; brain, 0.5mg/kg oral, single dose) was “no detectable inhibition”. The “IC-50 MAO-A I.P. BRAIN” value (MAO-A [6]; [11]) was 1.2 mg/kg, the “IC-50 MAO-A I.P. LIVER” value (MAO-A [6]; [11]) was 5 mg/kg and the “IC-50 MAO-A P.O. BRAIN” value (MAO-A [6]; [12]) was over 5 mg/kg. The “IC-50 MAO-A P.O. LIVER” value (MAO-A [6]; [12]) was over 5 mg/kg, the inhibition at 0.1 mg/kg (MAO-B [7]) was over 80% and the “time of maximal inhibition of MAO-B after injection” value (MAO-B [8]) was 6 h. It also gave a Percent relaxation (guinea-pig ileum [9]) of 25% and an inhibition at 60 µM (guinea-pig ileum [10]) of 25 to 50%.
